Reference: paper PMC11339798, “Dual inhibitors of Pseudomonas aeruginosa virulence factors LecA and LasB” (Chemical Science, 2024)

Key:
LecA [1] = molecular target: T1, LecA (Pseudomonas aeruginosa, UniProt Q05097); assay: Competitive binding assay for LecA based on fluorescence polarization; set-up: species or system P. aeruginosa
T1 construct: made in house; host or cells: E. coli (plasmid pET25-pail)
Method: The four thiols 17, 18, 24 and 25 as well as three disulfides 26a, 26b and 27 were then evaluated for their activity against LecA using a competitive binding assay based on fluorescence polarization (Fig. 4B). […]
Expression and purification of LasB and LecA
LecA was expressed recombinantly using E. coli pET25-pail, whereas LasB was isolated from P. aeruginosa PA14 culture supernatant as described previously. 1,2
LecA labeling with fluorescein was performed in analogy to Sommer et al. 3 and Beshr et al.4 To this end fluorescein isothiocyanate (FITC) was freshly dissolved in carbonate-bicarbonate buffer with pH of 9.3 at a concentration of 3 mg mL-1. Subsequently, 66 µL of this FITC solution was combined with 1.4 mL of LecA at a concentration of 60 µM in carbonate-bicarbonate buffer, pH 9.3. The resulting mixture was then incubated at 25 °C with shaking at 500 rpm for 1 hour. Then, extensive washing with PBS/Ca2+ in a 5 kDa molecular weight cutoff centrifugal concentrator was performed to remove excess dye and buffer the labelled protein. […]
Competitive binding assay for LecA
The procedure for the fluorescence polarization-based competitive binding assay for LecA was performed as reported by Joachim et al. with modifications. 1 The assay was performed in TBS/Ca2+ buffer (20 mM Tris, 137 mM NaCl, 2.6 mM KCl at pH 7.4 supplemented with 1 mM CaCl 2 and contained 5% DMSO). The final protein concentration in the assay was 5 µM for LecA. Fluorescence intensities were recorded on a PheraStar FS plate reader (BMG Labtech GmbH, Germany) and polarization was calculated using MARS Data Analysis (BMG Labtech).
IC50 values were obtained from a four-parameter curve-fitting procedure. Averages and standard deviations were calculated from at least three independent experiments of technical

Kinetic solubility = type: physicochemical; conditions: aqueous buffer, kinetic from dmso stock; 10 mm PBS with 2% DMSO at 37 °C
LecA [2] = molecular target: T1, LecA; assay: Surface plasmon resonance direct LecA binding assay (immobilized LecA); set-up: species or system P. aeruginosa
Excerpt: Therefore, we measured the LecA affinity of thiol derivatives 17, 18, 24 and 25 and disulfides 26a, 26b and 27 using surface plasmon resonance (SPR) with LecA covalently immobilized on a sensor chip via amide coupling (Fig. 5 and Table 1). […] Thiols 17, 18, 24 and 25 reached equilibrium binding within 60 s of interaction with immobilized LecA, followed by their dissociation with moderate off-rates. […] Due to the very small off-rates for 26a, 26b and 27, these values have been calculated based on the response at […] of the injected compound and monitoring their dissociation for 30 min (Fig. S2 ^†). The observed very tight binding to immobilized LecA required optimization of the protein surface regeneration procedure. Effective conditions were identified as one injection of 50 mm isopropyl β-D-thiogalactoside in the running buffer, followed by one injection of 20 mm EDTA disodium salt in water. The regenerated chip surface was controlled using an injection of 1 to ensure that the activity of LecA was maintained.
Surface plasmon resonance direct LecA binding assay
SPR experiments were performed on a Reichert 2-channel SPR SR7500DC (Reichert Technologies Life Sciences, Buffalo, NY, USA) at 25 °C. For LecA immobilization, the surface of a HC1000M sensor chip (XanTec bioanalytics GmbH, Düsseldorf, Germany) was preequilibrated with borate buffer (1 M NaCl, 0.1 M sodium borate pH 9.0), followed by activation of the polycarboxylate hydrogel with 0.2 M N-hydroxysuccinimide (NHS) and 0.4 M 1-ethyl-3-(3-dimethylaminopropyl)carbodiimide hydrochloride (EDC‧HCl) in MilliQ water in both channels for 240 s (flow rate 10 μL/min) until the binding response reached 1200 RU.
Then, LecA (100 μg/mL) in 10 mM sodium acetate pH 3.6 was injected on the activated chip surface of one channel (injection time 420 s, flow rate 10 μL/min) and 6000 RU of LecA were immobilized. Unreacted NHS esters in both channels were blocked with 1 M ethanolamine hydrochloride in MilliQ water pH 8.5 (injection time 360 s, flow rate 10 μL/min).
Test compound stock solutions were prepared in DMSO (20 mM stocks for monovalent LecA inhibitors, 20 µM stocks for divalent LecA inhibitors) and were subsequently diluted in 10 mM phosphate buffer (pH 7.4, 2.7 mM KCl, 137 mM NaCl, 100 μM CaCl2) to obtain solutions with […]
Monovalent inhibitors 17, 18, 24 and 25 were injected for 120 s (flow rate 50 μL/min) at concentrations ranging from 0.39–100 µM. Divalent inhibitors 26a, 26b and 27 were injected for 120 s (flow rate 50 μL/min) at concentrations 50–350 nM. The chip surface was regenerated after each inhibitor injection by one injection of 50 mM IPTG in running buffer (10 mM phosphate buffer, pH 7.4, 2.7 mM KCl, 137 mM NaCl, 100 μM CaCl2, 2% DMSO) followed by one injection 20 mM EDTA disodium salt in MilliQ water, and then followed by three injections of the running buffer (injection time 120 s, flow rate 50 μL/min). 100 µM pNP-Gal (1) in running buffer was injected before each analyte to monitor and ensure chip regeneration and […]
Affinity/equilibrium analysis was performed for 1 on the same chip. A stock solution of 1 (10 mM in PBS/CaCl2 buffer) was prepared, then diluted to the required concentrations in running buffer and injected at 1.56–400 µM (injection time 60 s, flow rate 50 μL/min) without regeneration steps. Data analysis was performed using TraceDrawer software (Ridgeview Instruments) using a 1:1 binding model to fit the experimental data. Spikes at the end of the injections were removed in TraceDrawer during the data analysis.

T1 sequence (Q05097 whole entry): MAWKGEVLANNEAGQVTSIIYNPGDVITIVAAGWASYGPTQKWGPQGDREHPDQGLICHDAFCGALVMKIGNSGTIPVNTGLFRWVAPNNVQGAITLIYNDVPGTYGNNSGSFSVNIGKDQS

Compound `CC(C)CC(SSC(CC(C)C)C(=O)Nc1ccc(S[C@@H]2O[C@H](CO)[C@H](O)[C@H](O)[C@H]2O)cc1)C(=O)Nc1ccc(S[C@@H]2O[C@H](CO)[C@H](O)[C@H](O)[C@H]2O)cc1` (some centres unmarked) [Compound 27] has an IC50 (LecA [1]) of 5.7 µM, a solubility kinetic (Kinetic solubility) greater than 600 µM and a Kd (LecA [2]) of 0.0045 ± 0.0004 µM. For the same compound, the k a (LecA [2]; SPR, immobilized LecA) was 5.2 ± 0.6 ×10^4 M^−1 s^−1 and the k d (LecA [2]; SPR, immobilized LecA) was 2.2 ± 0.3 ×10^−4 s^−1.
